How the values were obtained:
[1] = Molar enthalpy of transition or fusion; details: Crystal
[2] = molar heat capacity at constant pressure; details: 101.33 kPa

O=C1CCCCC1C1(O)CCCCC1 (stereo unspecified) [1'-hydroxy-[1,1'-bicyclohexyl]-2-one]
[1]
Details | Molar enthalpy of transition or fusion [kcal/mol]
Adiabatic calorimetry | 4.974
DSC | 4.95

[2], Crystal
Details | molar heat capacity at constant pressure [J/K/mol]
5 K | 0.496
10 K | 3.909
15 K | 10.08
20 K | 17.48
25 K | 25.17
30 K | 32.48
35 K | 39.18
40 K | 45.5
45 K | 51.25
50 K | 56.58
60 K | 66.47
70 K | 75.55
80 K | 84.14
90 K | 92.37
100 K | 100.7
110 K | 108.6
120 K | 116.4
130 K | 124.2
140 K | 132
150 K | 139.8
160 K | 147.7
170 K | 155.8
180 K | 163.9
190 K | 171.9
200 K | 180
210 K | 188.2
220 K | 196.6
230 K | 205.1
240 K | 213.9
250 K | 223.2
260 K | 233.2
270 K | 243.9
280 K | 255.5
290 K | 268
300 K | 281.5
306.75 K | 291.3

[2], Liquid, Large sample (1 g) DSC
Details | molar heat capacity at constant pressure [J/K/mol]
306.75 K | 350
310 K | 352
320 K | 359.3
330 K | 367.5
340 K | 376.8
350 K | 387.2
360 K | 398.7
370 K | 411.2

Source: the NIST ThermoML archive (doi:10.1021/je0501078)
